Test results from patent US12594276B2, “Inhibitors of human immunodeficiency virus replication” (ViiV Healthcare UK (No.5) Limited, priority 2024, dated 2026).
Like-named read-outs stand apart in the source and are kept apart here.

What was measured:
[1] = system: recombinant NL4-3 virus (nef section replaced with Renilla luciferase gene) in MT-2 cells; assay: HIV cell culture assay (antiviral activity, luciferase readout); format: cell-based; conditions: Renilla, NL43, MT-2 cells infected for 4-5 days with recombinant NL4-3 Renilla luciferase virus
How it was run: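 Compound activity was measured as reduction of luciferase in MT-2 cells infected for 4-5 days with serially diluted compound present. EC50 values were calculated with the median effect equation.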

[2] = Compound cytotoxicity, XTT-based colorimetric assay; format: cell-based; conditions: human
Experimental: Compound cytotoxicity and the corresponding CC50 values were determined using the same protocol as described in the antiviral assay except that uninfected cells were used. Cytotoxicity was assessed on day 4 in uninfected MT2 cells by using an XTT (2,3-bis[2-Methoxy-4-nitro-5-sulfophenyl]-2H-tetrazolium-5-carboxyanilide inner salt)-based colorimetric assay (Sigma-Aldrich, St Louis, Mo).

[3] = uninfected MT2 cells, day 4, XTT, read-out: CC50

## Cc1cc(C2CCC(F)(F)CC2)nc2nc([C@H](Cc3cc(F)cc(F)c3)NC(=O)Cn3nc(C4CC4)c4c3C[C@@H]3C[C@H]43)n(-c3ccc(Cl)c4c(NS(C)(=O)=O)nn(CCN5CC(C)(C)OC(C)(C)C5)c34)c(=O)c12 (atropisomer, axis not shown; (P)) [Example 13, N-[(1S)-1-[(3P)-3-{4-chloro-3-methanesulfonamido-1-[2-(2,2,6,6-tetramethylmorpholin-4-yl)ethyl]-1H-indazol-7-yl}-7-(4,4-difluorocyclohexyl)-5-methyl-4-oxo-3H,4H-pyrido[2,3-d]pyrimidin-2-yl]-2-(3,5-difluorophenyl)ethyl]-2-[(2S,4S)-9-cyclopropyl-7,8-diazatricyclo[4.3.0.0^2,4]nona-1(6),8-dien-7-yl]acetamide]
[1]
  EC50: 0.011 nM
[2]; [3]
  CC50 at 4 days: > 20000 nM

## Cc1cc(C2CCC(F)(F)CC2)nc2nc([C@H](Cc3cc(F)cc(F)c3)NC(=O)Cn3nc(C(F)F)c4c3C(F)(F)[C@@H]3C[C@H]43)n(-c3ccc(Cl)c4c(NS(C)(=O)=O)nn(CCN5CCCC(F)(F)C5)c34)c(=O)c12 (atropisomer, axis not shown; (P)) [Example 14, N-[(1S)-1-[(3P)-3-{4-chloro-1-[2-(3,3-difluoropiperidin-1-yl)ethyl]-3-methanesulfonamido-1H-indazol-7-yl}-7-(4,4-difluorocyclohexyl)-5-methyl-4-oxo-3H,4H-pyrido[2,3-d]pyrimidin-2-yl]-2-(3,5-difluorophenyl)ethyl]-2-[(2S,4R)-9-(difluoromethyl)-5,5-difluoro-7,8-diazatricyclo[4.3.0.0^2,^4]nona-1(6),8-dien-7-yl]acetamide]
[1]
  EC50: 0.009 nM
[2]; [3]
  CC50 at 4 days: > 50 nM

## Cc1cc(C2CCC(F)(F)CC2)nc2nc([C@H](Cc3cc(F)cc(F)c3)NC(=O)Cn3nc(C(F)F)c4c3C(F)(F)[C@@H]3C[C@H]43)n(-c3ccc(Cl)c4c(NS(C)(=O)=O)nn(CCN5CCCC(F)(F)CC5)c34)c(=O)c12 (atropisomer, axis not shown; (P)) [Example 15, N-[(1S)-1-[(3P)-3-{4-chloro-1-[2-(4,4-difluoroazepan-1-yl)ethyl]-3-methanesulfonamido-1H-indazol-7-yl}-7-(4,4-difluorocyclohexyl)-5-methyl-4-oxo-3H,4H-pyrido[2,3-d]pyrimidin-2-yl]-2-(3,5-difluorophenyl)ethyl]-2-[(2S,4R)-9-(difluoromethyl)-5,5-difluoro-7,8-diazatricyclo[4.3.0.0^2,^4]nona-1(6),8-dien-7-yl]acetamide]
[1]
  EC50: 0.01 nM
[2]; [3]
  CC50 at 4 days: > 50 nM

## Cc1cc(C2CCC(F)(F)CC2)nc2nc([C@H](Cc3cc(F)cc(F)c3)NC(=O)Cn3nc(C(F)F)c4c3C(F)(F)[C@@H]3C[C@H]43)n(-c3ccc(Cl)c4c(NS(C)(=O)=O)nn(CCN5CC(C)(C)OC(C)(C)C5)c34)c(=O)c12 (atropisomer, axis not shown; (P)) [Example 17, N-[(1S)-1-[(3P)-3-{4-chloro-3-methanesulfonamido-1-[2-(2,2,6,6-tetramethylmorpholin-4-yl)ethyl]-1H-indazol-7-yl}-7-(4,4-difluorocyclohexyl)-5-methyl-4-oxo-3H,4H-pyrido[2,3-d]pyrimidin-2-yl]-2-(3,5-difluorophenyl)ethyl]-2-[(2S,4R)-9-(difluoromethyl)-5,5-difluoro-7,8-diazatricyclo[4.3.0.0^2,^4]nona-1(6),8-dien-7-yl]acetamide]
[1]
  EC50: 0.012 nM
[2]; [3]
  CC50 at 4 days: > 50 nM

## CS(=O)(=O)Nc1nn(CCN2CCC(F)(F)C2)c2c(-n3c([C@H](Cc4cc(F)cc(F)c4)NC(=O)Cn4nc(C5CC5)c5c4C[C@@H]4C[C@H]54)nc4nc(C5CCC(F)(F)CC5)ccc4c3=O)ccc(Cl)c12 (atropisomer, axis not shown; (P)) [Example 24, N-[(1S)-1-[(3P)-3-{4-chloro-1-[2-(3,3-difluoropyrrolidin-1-yl)ethyl]-3-methanesulfonamido-1H-indazol-7-yl}-7-(4,4-difluorocyclohexyl)-4-oxo-3H,4H-pyrido[2,3-d]pyrimidin-2-yl]-2-(3,5-difluorophenyl)ethyl]-2-[(2S,4S)-9-cyclopropyl-7,8-diazatricyclo[4.3.0.0^2,^4]nona-1(6),8-dien-7-yl]acetamide]
[1]
  EC50: 0.007 nM
[2]; [3]
  CC50 at 4 days: > 50 nM

## CS(=O)(=O)Nc1nn(CCN2C[C@@H](F)[C@@H](F)C2)c2c(-n3c([C@H](Cc4cc(F)cc(F)c4)NC(=O)Cn4nc(C(F)F)c5c4C(F)(F)[C@@H]4C[C@H]54)nc4nc(C5CCC(F)(F)CC5)ccc4c3=O)ccc(Cl)c12 (atropisomer, axis not shown; (P)) [Example 26, N-[(1S)-1-[(3P)-3-(4-chloro-1-{2-[(3R,4S)-3,4-difluoropyrrolidin-1-yl]ethyl}-3-methanesulfonamido-1H-indazol-7-yl)-7-(4,4-difluorocyclohexyl)-4-oxo-3H,4H-pyrido[2,3-d]pyrimidin-2-yl]-2-(3,5-difluorophenyl)ethyl]-2-[(2S,4R)-9-(difluoromethyl)-5,5-difluoro-7,8-diazatricyclo[4.3.0.0^2,^4]nona-1(6),8-dien-7-yl]acetamide]
[1]
  EC50: 0.011 nM
[2]; [3]
  CC50 at 4 days: > 50 nM

## CS(=O)(=O)Nc1nn(CCN[C@@H]2CCCOC2)c2c(-n3c([C@H](Cc4cc(F)cc(F)c4)NC(=O)Cn4nc(C(F)F)c5c4C(F)(F)[C@@H]4C[C@H]54)nc4nc(C5CCC(F)(F)CC5)ccc4c3=O)ccc(Cl)c12 (atropisomer, axis not shown; (P)) [Example 40, N-[(1S)-1-[(3P)-3-[4-chloro-3-methanesulfonamido-1-(2-{[(3R)-oxan-3-yl]amino}ethyl)-1H-indazol-7-yl]-7-(4,4-difluorocyclohexyl)-4-oxo-3H,4H-pyrido[2,3-d]pyrimidin-2-yl]-2-(3,5-difluorophenyl)ethyl]-2-[(2S,4R)-9-(difluoromethyl)-5,5-difluoro-7,8-diazatricyclo[4.3.0.0^2,^4]nona-1(6),8-dien-7-yl]acetamide]
[1]
  EC50: 0.028 nM
[2]; [3]
  CC50 at 4 days: > 50 nM

## CS(=O)(=O)Nc1nn(CCN2CC[C@](F)(C(F)(F)F)C2)c2c(-n3c([C@H](Cc4cc(F)cc(F)c4)NC(=O)Cn4nc(C(F)F)c5c4C(F)(F)[C@@H]4C[C@H]54)nc4nc(C5CCC(F)(F)CC5)ccc4c3=O)ccc(Cl)c12 (atropisomer, axis not shown; (P)) [Example 41]
[1]
  EC50: 0.015 nM
[2]; [3]
  CC50 at 4 days: > 50 nM

## CS(=O)(=O)Nc1nn(CCN2CC[C@@](F)(C(F)(F)F)C2)c2c(-n3c([C@H](Cc4cc(F)cc(F)c4)NC(=O)Cn4nc(C(F)F)c5c4C(F)(F)[C@@H]4C[C@H]54)nc4nc(C5CCC(F)(F)CC5)ccc4c3=O)ccc(Cl)c12 (atropisomer, axis not shown; (P)) [Example 42, N-[(1S)-1-[(3P)-3-(4-chloro-1-{2-[(3S)-3-fluoro-3-(trifluoromethyl)pyrrolidin-1-yl]ethyl}-3-methanesulfonamido-1H-indazol-7-yl)-7-(4,4-difluorocyclohexyl)-4-oxo-3H,4H-pyrido[2,3-d]pyrimidin-2-yl]-2-(3,5-difluorophenyl)ethyl]-2-[(2S,4R)-9-(difluoromethyl)-5,5-difluoro-7,8-diazatricyclo[4.3.0.0^2,^4]nona-1(6),8-dien-7-yl]acetamide]
[1]
  EC50: 0.021 nM
[2]; [3]
  CC50 at 4 days: > 50 nM

## CS(=O)(=O)Nc1nn(CCN2[C@@H]3CC[C@H]2CC(F)(F)C3)c2c(-n3c([C@H](Cc4cc(F)cc(F)c4)NC(=O)Cn4nc(C(F)F)c5c4C(F)(F)[C@@H]4C[C@H]54)nc4nc(C5CCC(F)(F)CC5)ccc4c3=O)ccc(Cl)c12 (atropisomer, axis not shown; (P)) [Example 43, N-[(1S)-1-[(3P)-3-(4-chloro-1-{2-[(1R,5S)-3,3-difluoro-8-azabicyclo[3.2.1]octan-8-yl]ethyl}-3-methanesulfonamido-1H-indazol-7-yl)-7-(4,4-difluorocyclohexyl)-4-oxo-3H,4H-pyrido[2,3-d]pyrimidin-2-yl]-2-(3,5-difluorophenyl)ethyl]-2-[(2S,4R)-9-(difluoromethyl)-5,5-difluoro-7,8-diazatricyclo[4.3.0.0^2,^4]nona-1(6),8-dien-7-yl]acetamide]
[1]
  EC50: 0.021 nM
[2]
  CC50 at 4 days: > 50 nM

## CS(=O)(=O)Nc1nn(CCN2CC(F)(F)C2)c2c(-n3c([C@H](Cc4cc(F)cc(F)c4)NC(=O)Cn4nc(C(F)F)c5c4C(F)(F)[C@@H]4C[C@H]54)nc4nc(C5CCC(F)(F)CC5)ccc4c3=O)ccc(Cl)c12 (atropisomer, axis not shown; (P)) [Example 48, N-[(1S)-1-[(3P)-3-{4-chloro-1-[2-(3,3-difluoroazetidin-1-yl)ethyl]-3-methanesulfonamido-1H-indazol-7-yl}-7-(4,4-difluorocyclohexyl)-4-oxo-3H,4H-pyrido[2,3-d]pyrimidin-2-yl]-2-(3,5-difluorophenyl)ethyl]-2-[(2S,4R)-9-(difluoromethyl)-5,5-difluoro-7,8-diazatricyclo[4.3.0.0^2,^4]nona-1(6),8-dien-7-yl]acetamide]
[1]
  EC50: 0.018 nM
[2]; [3]
  CC50 at 4 days: > 50 nM

## Cc1cc(C2CCC(F)(F)CC2)nc2nc([C@H](Cc3cc(F)cc(F)c3)NC(=O)Cn3nc(C(F)F)c4c3C(F)(F)[C@@H]3C[C@H]43)n(-c3ccc(Cl)c4c(NS(C)(=O)=O)nn(CCOC(C)C)c34)c(=O)c12 (atropisomer, axis not shown; (P)) [Example 59, N-[(1S)-1-[(3P)-3-{4-chloro-3-methanesulfonamido-1-[2-(propan-2-yloxy)ethyl]-1H-indazol-7-yl}-7-(4,4-difluorocyclohexyl)-5-methyl-4-oxo-3H,4H-pyrido[2,3-d]pyrimidin-2-yl]-2-(3,5-difluorophenyl)ethyl]-2-[(2S,4R)-9-(difluoromethyl)-5,5-difluoro-7,8-diazatricyclo[4.3.0.0^2,^4]nona-1(6),8-dien-7-yl]acetamide]
[1]
  EC50: 0.011 nM
[2]; [3]
  CC50 at 4 days: > 50 nM
